Source: patent US20260042762A1 (Kymera Therapeutics, Inc., priority 2018, published 2026)

Target: T1, MerTK (Homo sapiens, UniProt Q12866)
T1 construct: endogenous in cells; host or cells: Jurkat cells
T1 sequence (Q12866 21-999): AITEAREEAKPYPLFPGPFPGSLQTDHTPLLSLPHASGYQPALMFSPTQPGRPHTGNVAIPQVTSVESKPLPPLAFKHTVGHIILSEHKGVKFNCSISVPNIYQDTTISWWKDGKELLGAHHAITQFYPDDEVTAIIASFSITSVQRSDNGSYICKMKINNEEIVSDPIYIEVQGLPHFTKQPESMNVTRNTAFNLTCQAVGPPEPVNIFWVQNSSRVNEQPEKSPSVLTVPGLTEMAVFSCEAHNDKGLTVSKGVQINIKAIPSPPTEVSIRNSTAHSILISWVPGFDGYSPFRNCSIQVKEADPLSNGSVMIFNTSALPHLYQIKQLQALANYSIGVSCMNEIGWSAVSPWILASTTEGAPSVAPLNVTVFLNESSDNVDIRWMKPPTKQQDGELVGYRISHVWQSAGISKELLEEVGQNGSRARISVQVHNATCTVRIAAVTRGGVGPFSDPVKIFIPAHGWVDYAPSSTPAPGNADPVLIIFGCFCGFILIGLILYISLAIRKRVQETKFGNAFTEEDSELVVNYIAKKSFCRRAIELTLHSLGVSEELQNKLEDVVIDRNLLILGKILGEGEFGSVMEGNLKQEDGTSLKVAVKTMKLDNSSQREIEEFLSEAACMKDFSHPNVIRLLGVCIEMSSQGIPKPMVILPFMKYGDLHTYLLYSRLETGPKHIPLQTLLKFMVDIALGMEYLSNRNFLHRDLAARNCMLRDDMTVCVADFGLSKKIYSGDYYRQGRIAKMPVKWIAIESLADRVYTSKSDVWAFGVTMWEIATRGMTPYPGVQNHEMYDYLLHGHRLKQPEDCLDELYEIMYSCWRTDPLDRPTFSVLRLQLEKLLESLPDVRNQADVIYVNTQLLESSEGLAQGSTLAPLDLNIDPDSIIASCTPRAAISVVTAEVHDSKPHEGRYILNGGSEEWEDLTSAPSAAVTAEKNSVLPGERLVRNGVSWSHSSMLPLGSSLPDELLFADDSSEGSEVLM
Assay: MerTk degradation in Jurkat cells (Western blot)
Type: cell-based
Settings: Jurkat, 4 h, 0.001-1 μM, 4 hour-incubation at 37° C., read-out: Jurkat Max % MerTK Degradation
Protocol: Compounds were reconstituted in DMSO to make 10 mM stock solutions. […] Cells were seeded into 6-well plates with about 5×10^6 cells per well. 2 μL of diluted compounds were added to cells to the final concentration of 0.001-1 μM. After a 4 hour-incubation at 37° C., cells were collected into 2 mL Eppendorf tubes and centrifuged at 1,000 rpm for 5 min. The cell pellets were washed with DPBS (1×) once and resuspended in 60 μL RIPA lysis buffer with Halt Protease and Phophatase Inhibitor Cocktail. The cells were lysed on ice for 10 min, then centrifuged at 14,000 rpm for 10 min at 4° C. and the supernatants were collected for western blots.
The protein concentration of cell lysates was quantified with Pierce™ BCA Protein Assay Kit. […] BCA working reagents were prepared by mixing BCA reagent A with reagent B in 50: 1 ratio. 200 μL of the BCA working reagents were added to 25 μL of BCA standard or cell lysates in microplate, and mixed thoroughly on a plate shaker for 30 seconds. After incubation at 37° C. for 30 min, the absorbance of samples at 562 nm were measured with EnVision Plate Reader.
Protein lysates were prepared in NuPAGE™ LDS sample buffer and NuPAGE™ sample reducing agent, and incubated at 95° C. for 5 min. […] The proteins were transferred to low fluorescence PVDF membranes using the Trans-Blot Turbo Transfer System. Membranes were then blocked in Odyssey blocking buffer at RT for 1 h followed by primary incubation at 4° C. overnight. The primary antibodies were MerTK rabbit monoclonal antibody and actin mouse monoclonal antibody. Membranes were washed three times with TBST (1×), and then incubated with IR Dye 800 CW Goat anti-rabbit and IR Dye 700 CW Goat anti-mouse secondary antibodies in 1:10,000 dilution at RT for 1 h. The Western blot images were obtained using Odyssey Imaging System.

| SMILES | Dmax |
| --- | --- |
| CN(C)c1cccc2c(S(=O)(=O)Nc3cccc(-c4cnc(NCCOCCN5CCN(Cc6ccc(-c7cn([C@H]8CC[C@H](O)CC8)c8nc(NCCC(F)(F)F)ncc78)cc6)CC5)nc4N4CCC(c5ccccc5)C4C(=O)O)c3)cccc12 (stereo partly drawn) [I-167, 1-(5-[3-[5-(Dimethylamino)naphthalene-1-sulfonamido]phenyl]-2-[[2-(2-[4-[(4-[7-[trans-4-hydroxycyclohexyl]-2-[(3,3,3-trifluoropropyl)amino]pyrrolo[2,3-d]pyrimidin-5-yl]phenyl)methyl]piperazin-1-yl]ethoxy)ethyl]amino]pyrimidin-4-yl)-3-phenylpyrrolidine-2-carboxylic acid] | < 20% |
| Cn1c(=O)n([C@H]2CCC(=O)NC2=O)c2ccc(CCCOCCOCCOCCN3CCN(Cc4ccc(-c5cn([C@H]6CC[C@H](O)CC6)c6nc(NCCC(F)(F)F)ncc56)cc4)CC3)cc21 [I-55, 3-[3-methyl-2-oxo-5-(3-[2-[2-(2-[4-[(4-[7-[trans-4-hydroxycyclohexyl]-2-[(3,3,3-trifluoropropyl)amino]-7H-pyrrolo[2,3-d]pyrimidin-5-yl]phenyl)methyl]piperazin-1-yl]ethoxy)ethoxy]ethoxy]propyl)-2,3-dihydro-1H-1,3-benzodiazol-1-yl]piperidine-2,6-dione] | > 50% |
| Cn1c(=O)n([C@H]2CCC(=O)NC2=O)c2cccc(COCCCN3CCN(Cc4ccc(-c5cn([C@H]6CC[C@H](O)CC6)c6nc(NCCC(F)(F)F)ncc56)cc4)CC3)c21 [I-150, 3-[3-methyl-2-oxo-4-[(3-[4-[(4-[7-[trans-4-hydroxycyclohexyl]-2-[(3,3,3-trifluoropropyl)amino]pyrrolo[2,3-d]pyrimidin-5-yl]phenyl)methyl]piperazin-1-y1]propoxy)methyl]-1,3-benzodiazol-1-yl]piperidine-2,6-dione] | > 50% |
| Cc1ncsc1-c1ccc(CNC(=O)[C@@H]2C[C@@H](O)CN2C(=O)[C@@H](NC(=O)COCCOCCOCCOCCN2CCN(Cc3ccc(-c4cn([C@H]5CC[C@H](O)CC5)c5nc(NCCC(F)(F)F)ncc45)cc3)CC2)C(C)(C)C)cc1 [I-173, (2S,4R)-1-[(2S)-3,3-dimethyl-2-(14-[4-[(4-[7-[(1r,4r)-4-hydroxycyclohexyl]-2-[(3,3,3-trifluoropropyl)amino]pyrrolo[2,3-d]pyrimidin-5-yl]phenyl)methyl]piperazin-1-yl]-3,6,9,12-tetraoxatetradecanamido)butanoyl]-4-hydroxy-N-[[4-(4-methyl-1,3-thiazol-5-yl)phenyl]methyl]pyrrolidine-2-carboxamide] | 20 to 50% |
| CCC[C@H](C)Nc1ncc2c(-c3ccc(CN4CCN(C5CC(OCCc6ccc7c(c6)n(C)c(=O)n7C6CCC(=O)NC6=O)C5)CC4)cc3)cn([C@H]3CC[C@H](O)CC3)c2n1 (stereo partly drawn) [I-175, 3-[3-methyl-2-oxo-5-[2-(3-[4-[(4-[2-[(2S)-pentan-2-ylamino]-7-[trans-4-hydroxycyclohexyl]pyrrolo[2,3-d]pyrimidin-5-yl]phenyl)methyl]piperazin-1-yl]cyclobutoxy)ethyl]-1,3-benzodiazol-1-yl]piperidine-2,6-dione] | > 50% |
| CCCCNc1ncc2c(n1)n([C@H]1CC[C@H](O)CC1)cc2[C@H]1CC[C@H](CN2CCN(CCOCCOCCOCCOCCCc3ccc4c(c3)n(C)c(=O)n4[C@H]3CCC(=O)NC3=O)CC2)CC1 [I-90, 3-[3-methyl-2-oxo-5-[1-(4-[[(1r,4r)-4-[2-(butylamino)-7-[trans-4-hydroxycyclohexy1]-7H-pyrrolo[2,3-d]pyrimidin-5-yl]cyclohexyl]methyl]piperazin-1-yl)-3,6,9,12-tetraoxapentadecan-15-y1]-2,3-dihydro-1H-1,3-benzodiazol-1-yl]piperidine-2,6-dione] | > 50% |
| CCCCNc1ncc2c(C3=CCN(CCOCCOCCOCCOCCCc4ccc5c(c4)n(C)c(=O)n5[C@H]4CCC(=O)NC4=O)CC3)cn([C@H]3CC[C@H](O)CC3)c2n1 [I-96, 3-[5-(1-[4-[2-(butylamino)-7-[trans-4-hydroxycyclohexyl]-7H-pyrrolo[2,3-d]pyrimidin-5-y1]-1,2,3,6-tetrahydropyridin-1-y1]-3,6,9,12-tetraoxapentadecan-15-yl)-3-methyl-2-oxo-2,3-dihydro-1H-1,3-benzodiazol-1-yl]piperidine-2,6-dione; formic acid] | > 50% |
| Cn1c(=O)n([C@H]2CCC(=O)NC2=O)c2ccc(CCO[C@H]3C[C@@H](N4CCN(Cc5ccc(-c6cn([C@H]7CC[C@H](O)CC7)c7nc(NCCC(F)(F)F)ncc67)cc5)CC4)C3)cc21 [I-143, 3-[3-methyl-2-oxo-5-[2-(3-[4-[(4-[7-[trans-4-hydroxycyclohexyl]-2-[(3,3,3-trifluoropropyl)amino]pyrrolo[2,3-d]pyrimidin-5-yl]phenyl)methyl]piperazin-1-yl]cyclobutoxy)ethyl]-1,3-benzodiazol-1-yl]piperidine-2,6-dione; formic acid] | > 50% |
| CCCCNc1ncc2c(-c3ccc(CN4CCC(OCCCOCCCc5ccc6c(c5)n(C)c(=O)n6[C@H]5CCC(=O)NC5=O)CC4)cc3)cn([C@H]3CC[C@H](O)CC3)c2n1 [I-66, 3-[5-[3-(3-[[1-([4-[2-(butylamino)-7-[trans-4-hydroxycyclohexyl]-7H-pyrrolo[2,3-d]pyrimidin-5-yl]phenyl]methyl)piperidin-4-yl]oxy]propoxy)propyl]-3-methyl-2-oxo-2,3-dihydro-1H-1,3-benzodiazol-1-yl]piperidine-2,6-dione] | > 50% |
| Cn1c(=O)n(C2CCC(=O)NC2=O)c2ccc(C#CCOCCN3CCC(N4CCN(Cc5ccc(-c6cn([C@H]7CC[C@H](O)CC7)c7nc(NCCC(F)(F)F)ncc67)cc5)CC4)C3)cc21 (stereo partly drawn) [I-85, 3-(3-methyl-2-oxo-5-[3-[2-(3-[4-[(4-[7-[trans-4-hydroxycyclohexyl]-2-[(3,3,3-trifluoropropyl)amino]-7H-pyrrolo[2,3-d]pyrimidin-5-yl]phenyl)methyl]piperazin-1-yl]pyrrolidin-1-yl)ethoxy]prop-1-yn-1-y1]-2,3-dihydro-1H-1,3-benzodiazol-1-y1)piperidine-2,6-dione; di(formic acid)] | > 50% |
| Cc1ncsc1-c1ccc(CNC(=O)[C@@H]2C[C@@H](O)CN2C(=O)[C@@H](NC(=O)C2(F)CC2)C(C)(C)C)c(OCCCCN2CCN(Cc3ccc(-c4cn([C@H]5CC[C@H](O)CC5)c5nc(NCCC(F)(F)F)ncc45)cc3)CC2)c1 [I-179, (2S,4R)-1-[(2S)-2-[(1-fluorocyclopropyl)formamido]-3,3-dimethylbutanoyl]-4-hydroxy-N-[[4-(4-methyl-1,3-thiazol-5-yl)-2-(4-[4-[(4-[7-[trans-4-hydroxycyclohexyl]-2-[(3,3,3-trifluoropropyl)amino]pyrrolo[2,3-d]pyrimidin-5-yl]phenyl)methyl]piperazin-1-yl]butoxy)phenyl]methyl]pyrrolidine-2-carboxamide] | 20 to 50% |
| CCC[C@@H](C)Nc1ncc2c(n1)n([C@H]1CC[C@H](O)CC1)cc2[C@H]1CC[C@@H](CN2CCN(CCCO[C@H]3CCN(Cc4ccc5c(c4)n(C)c(=O)n5C4CCC(=O)NC4=O)C3)CC2)CC1 (stereo partly drawn) [I-219, 3-(3-methyl-2-oxo-5-[[(3S)-3-[3-(4-[[trans-4-[2-[(2S)-pentan-2-ylamino]-7-[trans-4-hydroxycyclohexyl]pyrrolo[2,3-d]pyrimidin-5-yl]cyclohexyl]methyl]piperazin-1-y1)propoxy]pyrrolidin-1-yl]methyl]-1,3-benzodiazol-1-yl)piperidine-2,6-dione; tris(formic acid)] | > 50% |
